Results from PubChem BioAssay (NCI).
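Results reflect a 48-hour exposure of cells in 96-well plates to compound at five concentrations. Abbreviation: GI50, concentration required for 50% inhibition of growth. The concentration for full growth arrest is given as TGI.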

Assays:
Experiment in all cases: NCI tumour cell line growth inhibition, 48 h
[1] = tested on: A498 renal
[2] = tested on: U251 CNS
[3] = tested on: RPMI-8226 leukemia
[4] = tested on: NCI-H23 lung
[5] = tested on: M14 melanoma
[6] = tested on: SN12C renal
[7] = tested on: MCF7 breast
[8] = tested on: UO-31 renal
[9] = tested on: SW-620 colon
[10] = tested on: MDA-MB-231 breast
[11] = tested on: MOLT-4 leukemia
[12] = tested on: HS 578T breast
[13] = tested on: CCRF-CEM leukemia
[14] = tested on: OVCAR-3 ovarian
[15] = tested on: SK-MEL-5 melanoma
[16] = tested on: OVCAR-4 ovarian
[17] = tested on: LOX IMVI melanoma
[18] = tested on: SNB-19 CNS
[19] = tested on: K-562 leukemia
[20] = tested on: HCT-116 colon
[21] = tested on: CAKI-1 renal
[22] = tested on: NCI-H226 lung
[23] = tested on: OVCAR-5 ovarian
[24] = tested on: NCI-H460 lung
[25] = tested on: ACHN renal
[26] = tested on: NCI-H522 lung
[27] = tested on: BT-549 breast
[28] = tested on: TK-10 renal
[29] = tested on: RXF 393 renal
[30] = tested on: COLO 205 colon
[31] = tested on: SNB-75 CNS
[32] = tested on: 786-0 renal
[33] = tested on: UACC-62 melanoma
[34] = tested on: OVCAR-8 ovarian
[35] = tested on: SK-MEL-2 melanoma
[36] = tested on: MDA-MB-435
[37] = tested on: HCC-2998 colon
[38] = tested on: SK-OV-3 ovarian
[39] = tested on: T-47D breast
[40] = tested on: KM12 colon
[41] = tested on: DU-145 prostate
[42] = tested on: UACC-257 melanoma
[43] = tested on: SF-295 CNS
[44] = tested on: HOP-62 NSCLC
[45] = tested on: MALME-3M melanoma
[46] = tested on: A549 NSCLC
[47] = tested on: IGROV1 ovarian
[48] = tested on: EKVX NSCLC
[49] = tested on: PC-3 prostate
[50] = tested on: HT29 colon
[51] = tested on: SF-539 CNS
[52] = tested on: HCT-15 colon
[53] = tested on: NCI/ADR-RES ovarian
[54] = tested on: HOP-92 NSCLC
[55] = tested on: HL-60(TB) leukemia
[56] = tested on: SR leukemia
[57] = tested on: SF-268 CNS
[58] = tested on: SK-MEL-28 melanoma

O=C(CCN1CCCC1)Nc1ccc2c(Nc3ccccc3)c3ccccc3nc2c1
GI50 [1]: 864 nM | TGI [1]: 2220 nM | GI50 [2]: 429 nM | TGI [2]: 2190 nM | GI50 [3]: 480 nM | TGI [3]: 1650 nM | GI50 [4]: 383 nM | TGI [4]: 2000 nM | GI50 [5]: 1130 nM | TGI [5]: 2690 nM | GI50 [6]: 306 nM | TGI [6]: 1810 nM | GI50 [7]: 22.1 nM | TGI [7]: 1770 nM | GI50 [8]: 808 nM | TGI [8]: 2380 nM | GI50 [9]: 232 nM | TGI [9]: 1870 nM | GI50 [10]: 1410 nM | TGI [10]: 3450 nM | GI50 [11]: 43.2 nM | TGI [11]: 1560 nM | GI50 [12]: 1090 nM | TGI [12]: 3280 nM | GI50 [13]: 142 nM | TGI [13]: 2140 nM | GI50 [14]: 1060 nM | TGI [14]: 3270 nM | GI50 [15]: 1380 nM | TGI [15]: 2710 nM | GI50 [16]: 468 nM | TGI [16]: 2130 nM | GI50 [17]: 398 nM | TGI [17]: 1930 nM | GI50 [18]: 432 nM | TGI [18]: 2920 nM | GI50 [19]: 235 nM | TGI [19]: 1200 nM | GI50 [20]: 611 nM | TGI [20]: 2200 nM | GI50 [21]: 397 nM | TGI [21]: 2080 nM | GI50 [22]: 1180 nM | TGI [22]: 3530 nM | GI50 [23]: 1520 nM | TGI [23]: 4400 nM | GI50 [24]: 48.9 nM | TGI [24]: 1200 nM | GI50 [25]: 243 nM | TGI [25]: 1510 nM | GI50 [26]: 1030 nM | TGI [26]: 2880 nM | GI50 [27]: 1500 nM | TGI [27]: 3090 nM | GI50 [28]: 1280 nM | TGI [28]: 3780 nM | GI50 [29]: 981 nM | TGI [29]: 2650 nM | GI50 [30]: 787 nM | TGI [30]: 2490 nM | GI50 [31]: 1090 nM | TGI [31]: 2330 nM | GI50 [32]: 467 nM | TGI [32]: 1930 nM | GI50 [33]: 1120 nM | TGI [33]: 2550 nM | GI50 [34]: 851 nM | TGI [34]: 5510 nM | GI50 [35]: 1690 nM | TGI [35]: 3560 nM | GI50 [36]: 1440 nM | TGI [36]: 2840 nM | GI50 [37]: 733 nM | TGI [37]: 2290 nM | GI50 [38]: 651 nM | TGI [38]: 3590 nM | GI50 [39]: 399 nM | TGI [39]: 2760 nM | GI50 [40]: 546 nM | TGI [40]: 2700 nM | GI50 [41]: 172 nM | TGI [41]: 1640 nM | GI50 [42]: 1750 nM | TGI [42]: 3830 nM | GI50 [43]: 498 nM | TGI [43]: 1910 nM | GI50 [44]: 404 nM | TGI [44]: 2510 nM | GI50 [45]: 1460 nM | TGI [45]: 2830 nM | GI50 [46]: 113 nM | TGI [46]: 3220 nM | GI50 [47]: 474 nM | TGI [47]: 3020 nM | GI50 [48]: 1410 nM | TGI [48]: 4230 nM | GI50 [49]: 951 nM | TGI [49]: 3010 nM | GI50 [50]: 521 nM | TGI [50]: 3140 nM | GI50 [51]: 1140 nM | TGI [51]: 2440 nM | GI50 [52]: 367 nM | TGI [52]: 2360 nM | GI50 [53]: 1840 nM | TGI [53]: 7220 nM | GI50 [54]: 432 nM | TGI [54]: 2260 nM | GI50 [55]: 264 nM | TGI [55]: 1610 nM | GI50 [56]: 50.3 nM | TGI [56]: 1450 nM | GI50 [57]: 677 nM | TGI [57]: 2300 nM | GI50 [58]: 1600 nM | TGI [58]: 3060 nM
